Key:
[1] = system: ovarian carcinoma cell line A2780; test: MTT colorimetric cell growth assay (Mossman), A2780; format: cell-based, human; conditions: 48 hour MTT assay
Excerpt: (§1) A human ovarian carcinoma cell line A2780 and its cis-platin-resistant derivative 2780CP ( see Masuda et al., Cancer Res., 50, 1863-1866, 1990), an EJ bladder carcinoma cell line (Accession No.85061108, European Collection of Animal Cell Cultures, Porton Down, UK ) and Rat-1 fibroblasts (Lania et al., Virology, 101, 217-232, 1980) were continuously maintained in RPMI 1640 medium (GIBCOBRL, Life technologies Ltd, Paisley, Scotland) supplemented with 10% FCS (foetal calf serum - ICN Flow, Thane, Oxfordshire, England), 2mM glutamine, and the antibiotics, penicillin (1000 U/ml) and streptomycin (1mg/ml) (Sigma Co. Ltd, Poole, Dorset, England) at 37°C in a 5% CO2 atmosphere.
(§2) Inhibition of cell proliferation was evaluated using the colorimetric assay of Mossman (see Mossman, J. Immunol. Meths., 65, 55-63, 1983). […] Various concentrations of G28.5 mAb were then added and their effect on cell growth was evaluated after an appropriate period of time (48, 72 or 96 hrs) by the addition of 20 µl of 5 mg/ml MTT (3-([…])-2,5-diphenyl tetrazolium bromide) obtained from Sigma, in PBS. The cells were further incubated for 5 hrs at 37°C, formazan crystals thus formed were dissolved in DMSO and the optical density (O.D.) was recorded at 550nm on a Becton Dickinson Multiscan. […] After 48 hours, cell growth was assessed using the MTT assay as described above. […]

[2] = system: Rat-1/CD40 CI.8 cell line; test: MTT colorimetric cell growth assay (Mossman), CD40-transfected Rat-1 fibroblasts; format: cell-based
Excerpt: as §1, with “atmosphere. […]” for “atmosphere.”
as §2

## N.N.[Cl][Pt][Cl] [cis-platin]
[1]; 5 µM cis-platin alone
  cell killing effect: 46%
[1]; 5 µM cis-platin with 10 µg/ml G28.5 mAb
  cell killing effect: 61%
[2]; cis-platin with 1 µg/ml G28.5 mAb, spread +/- 0.3
  IC50: 4.2 µM
[2]; cis-platin without G28.5 mAb, spread +/- 0.9
  IC50: 6 µM

From patent EP0806963B1, “CARCINOMA TREATMENT” (THE UNIVERSITY OF BIRMINGHAM, priority 1994, dated 1996)
